Measured values as given in the supplement of paper PMC4862054.
Values joined by “and” are separate entries in the source; they are usually repeats but may differ in a detail not shown here. Equal entries are not always repeated.

Key:
Settings in all cases: incubation time: 72 h
HDQ-P1 [1] = experiment: normalised response (% of control), CellTiter-Glo; higher = more viable cells (100 = DMSO, 0 = benzethonium chloride kill control)
Procedure, shortened: (§1)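 A 20 µl suspension of breast cancer cells was seeded into each well of 384-well plates containing compound at 5 concentrations in 10-fold steps over a compound-specific 10,000-fold range. After 72 h incubation, CellTox Green fluorescence (485/520 nm) was read first, and CellTiter-Glo luminescence was read after 10 min at room temperature. Each plate was normalised against 0.1 % DMSO (100) and a positive kill control (0), and each value is the normalised signal at one concentration.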

BT-474 [2] = experiment: as above
Procedure, shortened: as §1

Hs578T [3] = experiment: as above
Procedure, shortened: as §1

CAL-85-1 [4] = experiment: as above
Procedure, shortened: as §1

BT-549 [5] = experiment: as above
Procedure, shortened: as §1

HCC1599 [6] = experiment: as above
Procedure, shortened: as §1

MDA-MB-231 [7] = experiment: as above
Procedure, shortened: as §1

MDA-MB-468 [8] = experiment: as above
Procedure, shortened: as §1

HCC1937 [9] = experiment: as above
Procedure, shortened: as §1

DU-4475 [10] = experiment: as above
Procedure, shortened: as §1

MFM-223 [11] = experiment: as above
Procedure, shortened: as §1

MDA-MB-453 [12] = experiment: as above
Procedure, shortened: as §1

SK-BR-3 [13] = experiment: as above
Procedure, shortened: as §1

MDA-MB-436 [14] = experiment: as above
Procedure, shortened: as §1

MCF-10A = experiment: as above
Procedure, shortened: as §1

CAL-148 [15] = experiment: as above
Procedure, shortened: as §1

CAL-120 [16] = experiment: as above
Procedure, shortened: as §1

HCC1143 [17] = experiment: as above
Procedure, shortened: as §1

CAL-51 [18] = experiment: as above
Procedure, shortened: as §1

HDQ-P1 [19] = experiment: normalised viability (% of control), CellTiter-Blue; higher = more viable cells (100 = DMSO, 0 = benzethonium chloride kill control)
Procedure, shortened: (§2)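 Plates were quality-checked by Z'-factor and normalised to vehicle (100) and a positive kill control (0). The underlying assay incubated breast cancer cell lines for 72 h on 384-well plates with compound, then added 2.5 µl CellTiter-Blue for 2 h at 37 °C and read at 560/590 nm. The value is normalised viability at a single listed concentration of the series.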

BT-474 [20] = experiment: as above
Procedure, shortened: as §2

Hs578T [21] = experiment: as above
Procedure, shortened: as §2

CAL-85-1 [22] = experiment: as above
Procedure, shortened: as §2

BT-549 [23] = experiment: as above
Procedure, shortened: as §2

HCC1599 [24] = experiment: as above
Procedure, shortened: as §2

MDA-MB-231 [25] = experiment: as above
Procedure, shortened: as §2

MDA-MB-468 [26] = experiment: as above
Procedure, shortened: as §2

HCC1937 [27] = experiment: as above
Procedure, shortened: as §2

DU-4475 [28] = experiment: as above
Procedure, shortened: as §2

MFM-223 [29] = experiment: as above
Procedure, shortened: as §2

MDA-MB-453 [30] = experiment: as above
Procedure, shortened: as §2

SK-BR-3 [31] = experiment: as above
Procedure, shortened: as §2

MDA-MB-436 [32] = experiment: as above
Procedure, shortened: as §2

CAL-148 [33] = experiment: as above
Procedure, shortened: as §2

CAL-120 [34] = experiment: as above
Procedure, shortened: as §2

HCC1143 [35] = experiment: as above
Procedure, shortened: as §2

CAL-51 [36] = experiment: as above
Procedure, shortened: as §2

NC1(c2ccc(-c3nc4ccn5c(=O)[nH]nc5c4cc3-c3ccccc3)cc2)CCC1 [MK-2206] (0.1 nM)
normalised response (HDQ-P1 [1]): 103% | normalised response (BT-474 [2]): 101% | normalised response (Hs578T [3]): 97.2% | normalised response (CAL-85-1 [4]): 98.7% | normalised response (BT-549 [5]): 99.5% | normalised response (HCC1599 [6]): 87.8% | normalised response (MDA-MB-231 [7]): 106% | normalised response (MDA-MB-468 [8]): 103% | normalised response (HCC1937 [9]): 100% | normalised response (DU-4475 [10]): 101% | normalised response (MFM-223 [11]): 112% | normalised response (MDA-MB-453 [12]): 98.9% | normalised response (SK-BR-3 [13]): 110% | normalised response (MDA-MB-436 [14]): 98.3% | normalised response (MCF-10A): 107% | normalised response (CAL-148 [15]): 110% | normalised response (CAL-120 [16]): 112% | normalised response (HCC1143 [17]): 102% | normalised response (CAL-51 [18]): 87.9% | normalised viability (HDQ-P1 [19]): 113% | normalised viability (BT-474 [20]): 115% | normalised viability (Hs578T [21]): 107% | normalised viability (CAL-85-1 [22]): 108% | normalised viability (BT-549 [23]): 114% | normalised viability (HCC1599 [24]): 94.9% | normalised viability (MDA-MB-231 [25]): 106% | normalised viability (MDA-MB-468 [26]): 111% | normalised viability (HCC1937 [27]): 129% | normalised viability (DU-4475 [28]): 118% | normalised viability (MFM-223 [29]): 100% | normalised viability (MDA-MB-453 [30]): 105% | normalised viability (SK-BR-3 [31]): 107% | normalised viability (MDA-MB-436 [32]): 108% | normalised viability (CAL-148 [33]): 106% | normalised viability (CAL-120 [34]): 106% | normalised viability (HCC1143 [35]): 118% | normalised viability (CAL-51 [36]): 99.9%

NC(=O)c1cccc2cn(-c3ccc([C@@H]4CCCNC4)cc3)nc12 [MK-4827] (1 nM)
normalised response (HDQ-P1 [1]): 100% | normalised response (BT-474 [2]): 113% | normalised response (Hs578T [3]): 103% | normalised response (CAL-85-1 [4]): 102% | normalised response (BT-549 [5]): 102% | normalised response (HCC1599 [6]): 110% | normalised response (MDA-MB-231 [7]): 101% | normalised response (MDA-MB-468 [8]): 104% | normalised response (HCC1937 [9]): 102% | normalised response (DU-4475 [10]): 98.1% | normalised response (MFM-223 [11]): 101% | normalised response (MDA-MB-453 [12]): 99.3% | normalised response (SK-BR-3 [13]): 112% | normalised response (MDA-MB-436 [14]): 96.9% | normalised response (MCF-10A): 102% | normalised response (CAL-148 [15]): 115% | normalised response (CAL-120 [16]): 101% | normalised response (HCC1143 [17]): 105% | normalised response (CAL-51 [18]): 99.9% | normalised viability (HDQ-P1 [19]): 85.9% | normalised viability (BT-474 [20]): 121% | normalised viability (Hs578T [21]): 94.2% | normalised viability (CAL-85-1 [22]): 82.1% | normalised viability (BT-549 [23]): 112% | normalised viability (HCC1599 [24]): 97.1% | normalised viability (MDA-MB-231 [25]): 96% | normalised viability (MDA-MB-468 [26]): 91.7% | normalised viability (HCC1937 [27]): 97.3% | normalised viability (DU-4475 [28]): 102% | normalised viability (MFM-223 [29]): 92.2% | normalised viability (MDA-MB-453 [30]): 97.8% | normalised viability (SK-BR-3 [31]): 95.5% | normalised viability (MDA-MB-436 [32]): 80.8% | normalised viability (CAL-148 [33]): 105% | normalised viability (CAL-120 [34]): 90.2% | normalised viability (HCC1143 [35]): 92.1% | normalised viability (CAL-51 [36]): 108%

O=C(c1cc(Cc2n[nH]c(=O)c3ccccc23)ccc1F)N1CCN(C(=O)C2CC2)CC1 [Olaparib] (1 nM)
normalised response (HDQ-P1 [1]): 95.9% | normalised response (BT-474 [2]): 96.7% | normalised response (Hs578T [3]): 99.9% | normalised response (CAL-85-1 [4]): 103% | normalised response (BT-549 [5]): 103% | normalised response (HCC1599 [6]): 101% | normalised response (MDA-MB-231 [7]): 99.1% | normalised response (MDA-MB-468 [8]): 99% | normalised response (HCC1937 [9]): 90.5% | normalised response (DU-4475 [10]): 102% | normalised response (MFM-223 [11]): 96.7% | normalised response (MDA-MB-453 [12]): 103% | normalised response (SK-BR-3 [13]): 102% | normalised response (MDA-MB-436 [14]): 104% | normalised response (MCF-10A): 92.8% | normalised response (CAL-148 [15]): 93% | normalised response (CAL-120 [16]): 92.4% | normalised response (HCC1143 [17]): 93.1% | normalised response (CAL-51 [18]): 114% | normalised viability (HDQ-P1 [19]): 96.9% | normalised viability (BT-474 [20]): 85.8% | normalised viability (Hs578T [21]): 99.7% | normalised viability (CAL-85-1 [22]): 87.6% | normalised viability (BT-549 [23]): 86% | normalised viability (HCC1599 [24]): 89.9% | normalised viability (MDA-MB-231 [25]): 84.8% | normalised viability (MDA-MB-468 [26]): 95.3% | normalised viability (HCC1937 [27]): 102% | normalised viability (DU-4475 [28]): 94.1% | normalised viability (MFM-223 [29]): 91% | normalised viability (MDA-MB-453 [30]): 92.7% | normalised viability (SK-BR-3 [31]): 91.2% | normalised viability (MDA-MB-436 [32]): 113% | normalised viability (CAL-148 [33]): 87.1% | normalised viability (CAL-120 [34]): 73.8% | normalised viability (HCC1143 [35]): 88.4% | normalised viability (CAL-51 [36]): 103%

CO[C@H](C(=O)[C@@H](O)[C@@H](C)O)[C@@H]1Cc2cc3cc(O[C@H]4C[C@@H](O[C@@H]5C[C@@H](O)[C@H](O)[C@@H](C)O5)[C@H](O)[C@@H](C)O4)c(C)c(O)c3c(O)c2C(=O)[C@H]1O[C@H]1C[C@@H](O[C@@H]2C[C@@H](O)[C@@H](O[C@@H]3C[C@](C)(O)[C@H](O)[C@@H](C)O3)[C@@H](C)O2)[C@H](O)[C@@H](C)O1 [Plicamycin] (1 nM)
normalised response (HDQ-P1 [1]): 101% | normalised response (BT-474 [2]): 104% | normalised response (Hs578T [3]): 102% | normalised response (CAL-85-1 [4]): 102% | normalised response (BT-549 [5]): 102% | normalised response (HCC1599 [6]): 102% | normalised response (MDA-MB-231 [7]): 99.8% | normalised response (MDA-MB-468 [8]): 113% | normalised response (HCC1937 [9]): 96.9% | normalised response (DU-4475 [10]): 107% | normalised response (MFM-223 [11]): 106% | normalised response (MDA-MB-453 [12]): 108% | normalised response (SK-BR-3 [13]): 108% | normalised response (MDA-MB-436 [14]): 95% | normalised response (MCF-10A): 103% | normalised response (CAL-148 [15]): 112% | normalised response (CAL-120 [16]): 113% | normalised response (HCC1143 [17]): 92.6% | normalised response (CAL-51 [18]): 92.5% | normalised viability (HDQ-P1 [19]): 111% | normalised viability (BT-474 [20]): 106% and 92.2% | normalised viability (Hs578T [21]): 113% and 92.7% | normalised viability (CAL-85-1 [22]): 87.5% and 82.1% | normalised viability (BT-549 [23]): 93% and 90.1% | normalised viability (HCC1599 [24]): 101% and 107% | normalised viability (MDA-MB-231 [25]): 94% and 98.7% | normalised viability (MDA-MB-468 [26]): 96.7% and 101% | normalised viability (HCC1937 [27]): 97.7% and 85% | normalised viability (DU-4475 [28]): 112% and 109% | normalised viability (MFM-223 [29]): 91.7% and 84.2% | normalised viability (MDA-MB-453 [30]): 95.5% and 109% | normalised viability (SK-BR-3 [31]): 93.3% and 88.4% | normalised viability (MDA-MB-436 [32]): 108% and 92.6% | normalised viability (CAL-148 [33]): 111% and 108% | normalised viability (CAL-120 [34]): 82.5% and 79.1% | normalised viability (HCC1143 [35]): 96.8% and 82.4% | normalised viability (CAL-51 [36]): 102% and 112%
